“Also recorded” adds a separate entry of the source.
Legend:
Format in all cases: in vivo, C57BL/6 mice
[1] = tested on: leukocyte rolling and adhesion on brain microvasculature; assay: Intravital fluorescence microscopy of leukocyte-endothelium interactions in brain microvasculature of EAE mice; conditions: vs untreated EAE group
Procedure: Intravital microscopy techniques allow the study of leukocyte-endothelium interactions. […] To make a precise study of leukocyte-endothelium interactions, we first made a record of the venule for one minute using a camcorder, and in a second time, a more detailed analysis was performed. The parameters of interest were the number of leukocytes adhering to the venular endothelium (number of leukocytes stationary for more than 30 seconds), and the number of rolling leukocytes (number of white cells per minute moving at a velocity less than that of erythrocytes).
The craniotomy was performed on the parietal zone. Animals received i.v. administration of rhodamine 6G (0.3 mg/kg body weight) to fix leucocytes. The fluorescence associated to rhodamine 6G was visualized at 510-560 nm by epi-ilumination. The microscope (20×) was used for observing micro-circulating events in brain.

[2] = tested on: experimental autoimmune encephalomyelitis (EAE) mice; assay: Experimental autoimmune encephalomyelitis (EAE) in mice: clinical score, body weight, survival
Procedure: In the experiments we used fifteen animals per group. EAE was induced as described (Slavin A. Autoimmunity 1998, 28: 109) in C57BL mice by […]. The immunization was carried out with 100 μg of a partial peptide of myelin/oligodendrocyte glycoprotein ([…]) in complete Freund's adjuvant containing 4 mg of Mycobacterium tuberculosis H37Ra in 1 ml. The mice were immunized by subcutaneous injection of this emulsion on day 0. In addition, on day 0 and 2, were administered intraperitoneally 300 ng/200 μl of Bordetella pertussis toxin. The administration of 6 mg/kg of oleanolic acid was performed intraperitoneally once a day, beginning:
1.—12 days after induction of EAE, when clinical symptoms were detected, until the end of the experiment (21 days after induction) (OA1), and
2.—after 7 days of induction of EAE, before the onset of the disease, until the end of the experiment (21 days after induction) (OA2).
Mice were examined, weighed and scored daily in a double-blind manner for signs of EAE. OA-treated EAE mice were compared with a group of EAE animals treated with placebo, with untreated control animals or control animals received the same daily dose oleanolic acid. In addition, a pathologic evaluation was performed to confirm the effect of improving the state of the disease. The weight of the mice in each group is represented in FIGS. 1 A and 2 A. The level of paralysis reached by each group of mice is shown in FIGS. 1 B and 2 B.
The effect of disease improvement (clinical effect) by the action of oleanolic acid is scored and evaluated with the pattern presented below.
Grade 0.5, partial loss/reduced tail tone, assessed by inability to curl the distal end of the tail (Tail 50% or ⅔).
Grade 1.0, tail atony 100%
Grade 1.5, slightly/moderately clumsy gait, impaired righting ability, or combination.
Grade 2.0, hind limb weakness, partial (1 or 2)
Grade 2.5, partial (1 or 2) hind limb paralysis.
Grade 3, complete hind limb paralysis.
Grade 3.5, limb weakness.
Grade 4, tetraplegic. Complete limb paralysis
Grade 5, moribund state or death.
Chronic progressive EAE disease was induced in adult 8-10-wk-old female C57BL/J6 mice following the protocol described by (Slavin A. Autoimmunity 1998, 28:109-20). Mice were injected in the tail base bilaterally with an innoculum containing 100 μg of MOG peptide 35-55 emulsified in complete Freund's adjuvant containing 0.4 mg/ml Mycobacterium tuberculosis H37 RA. Then, i.p. injection 300 ng/animal of B. pertussis toxin was administered by two times with an interval of 48 hours. Mice were examined daily to monitor weight loss and the onset of neurological symptoms

[3] = tested on: blood-brain barrier permeability; assay: Evans blue extravasation (blood-brain barrier permeability) in CNS tissues of EAE mice; conditions: spinal cord, brain and cerebellum, vs untreated EAE animals
Procedure: Evans blue dye is able to bind quantitatively to albumin, both in vivo and in vitro. This property has been widely used for quantification of protein extravasation as an index of increased vascular permeability and, indirectly, of tissue damage. The Evans Blue, once extravasated into the tissues, is removed from them, and then quantified by visible spectrophotometry.
Mice from all experimental groups were given 30 mg/kg of Evans Blue i.p. Then, the spinal cord, cerebrum and cerebellum was removed and washed in saline. The dye was extracted from the CNS tissues with formamide and the concentration was determined by measuring the absorvance at 620 nm. CNS tissue was dried 24 h at 60° C. and weighed. The extravasated dye was expressed as μg of Evans Blue/mg dried weight of the tissue.

Osteopontin = Osteopontin in CNS tissues of EAE mice by ELISA; conditions: spinal cord, brain and cerebellum, day 21 post-immunization, vs EAE mice
Procedure: Animals of the different experimental groups were sacrificed at day 21 post-immunization and CNS protein extracts (cerebral cortex, cerebellum and spinal cord) were prepared by homogenization in a solution: 0.4 M NaCl, 0.05% Tween 20, 0.5% BSA, 0.1 mM phenylmethylsulfonyl fluoride, 0.1 mM benzetonium chloride, 10 mM EDTA and 20 KI aprotinin (100 mg tissue/ml). The homogenate was centrifuged at 10,000 rpm for 10 min at 4° C. The concentration of osteopontin was determined in the supernatants by a commercial ELISA kit.

CC1(C)CC[C@]2(C(=O)O)CC[C@]3(C)C(=CCC4[C@@]5(C)CC[C@H](O)C(C)(C)C5CC[C@]43C)C2C1 (stereo partly drawn) [oleanolic acid, 3β-hydroxyolean-12-en-28-oic acid]
flow of leukocytes rolling on the endothelium ([1]; protocol EAE+OA1): significant decrease
leukocytes adhering to the endothelium ([1]; protocol EAE+OA1): significant decrease
flow of leukocytes rolling on the endothelium ([1]; protocol EAE+OA2): significant decrease
leukocytes adhering to the endothelium ([1]; protocol EAE+OA2): significant decrease
clinical status / severity of the disease (signs of paralysis score) ([2]; OA1: 6 mg/kg ip daily from day 12 after induction (onset of clinical symptoms) to day 21, vs untreated EAE mice): decreases the severity of the disease; also recorded: significant improvement in clinical status of the disease
body weight ([2]; OA1: 6 mg/kg ip daily from onset of symptoms, recovery effect (FIG. 1A)): reduction of body weight was suppressed
body weight ([2]; OA2: 6 mg/kg ip daily from day 7, preventive effect (FIG. 2A)): reduction of body weight was suppressed
onset of the disease ([2]; OA2: prophylactic, 6 mg/kg ip daily from day 7 after induction to day 21, 6 mg/kg): delays the onset of EAE; also recorded: delay in the onset of the disease
severity of EAE (clinical signs) ([2]; OA2: prophylactic, 6 mg/kg ip daily from day 7 after induction to day 21, vs untreated EAE mice): significantly attenuated
survival (time until animals die) ([2]; oleanolic acid given at the onset of symptoms, placebo-treated EAE mice die within first 40 days): ≥ 60 days post-induction
Evans blue leakage in CNS tissues (vascular permeability) ([3]; protocol EAE+OA1): significantly reduced leakage
Evans blue leakage in CNS tissues (vascular permeability) ([3]; protocol EAE+OA2): significantly reduced leakage
Osteopontin expression in CNS tissues (Osteopontin; protocol OA1): significantly reduced
Osteopontin expression in CNS tissues (Osteopontin; second protocol (printed OA1, FIG. 5: EAE+OA2)): significantly reduced
